How the values were obtained:
Aged, two year old mice = test: Morris water maze procedure, aged mice; type: in vivo; conditions: two weeks after treatment, DHEA 20 mg/kg or equimolar amount, control 36 seconds
Description: Aged, two year old mice were tested in the Morris water maze procedure by training the mice to locate the pedestal in less than 15 seconds in three consecutive trials. Immediately upon completion of training one group of mice was treated with DHEA (20 mg/kg) and a second group treated with an eqimolar amount of Δ5-Androstene-3β-acetyl-7,17-dione. Two weeks after treatment the time to rescue was timed in the Morris water maze procedure at: Control 36 seconds, DHEA 27 seconds, and Δ5-Androstene-3β-acetyl-7,17-dione 13 seconds.

C57BL76 mice = test: Morris water maze procedure, scopolamine-induced amnesia; type: in vivo
Description: Groups of 13 to 16 C57BL76 mice (35 gm) were tested in the Morris. water maze procedure by training the mice to locate the pedestal in less than 15 seconds in three consecutive trials. Immediately upon completion of training the mice in each of three groups were treated with scopolamine (1 mg/kg), scopolamine+DHEA, or scopolamine+Δ5-Androstene-3β-acetyl-7,17-dione.

[1] = C57BL76 mice (35 gm), scopolamine 1 mg/kg alone or with the steroid, six days after treatment, control 12.2±1.8

| Compound | time to rescue in the Morris water maze procedure (Aged, two year old mice) [s] | average time to rescue in the Morris water maze procedure (C57BL76 mice; mouse, in vivo) [s] | average time to rescue in the Morris water maze procedure (C57BL76 mice; [1]) [s] |
| --- | --- | --- | --- |
| C[C@]12CC[C@H](O)CC1=CC[C@@H]1[C@@H]2CC[C@]2(C)C(=O)CC[C@@H]12 [DHEA, dehydroepiandrosterone] | 27 | 9.7 ± 1.6 | – |
| CN1[C@@H]2C[C@@H](OC(=O)[C@H](CO)c3ccccc3)C[C@H]1[C@@H]1O[C@@H]12 [scopolamine] | – | – | 20.0 ± 3.6 |
| CC(=O)O[C@H]1CC[C@@]2(C)C(=CC(=O)[C@@H]3[C@@H]2CC[C@]2(C)C(=O)CC[C@@H]32)C1 [Δ5-Androstene-3β-acetyl-7,17-dione] | 13 | – | 8.3 ± 1.8 |

Reference: patent US6489313B1, “Memory by the administration of Δ5-androstene-3β-ol-7,17-dione and 3β esters” (Humanetics Corporation, priority 1998, dated 2002)
